These results are taken from patent US11981677B2, “Further substituted triazolo quinoxaline derivatives” (Grünenthal GmbH, priority 2018, dated 2024).

This assay addresses T1, Glucocorticoid Receptor (Homo sapiens, UniProt P04150).
T1 construct: expressed in transfected cells
T1 sequence (P04150 524-758 limits assumed): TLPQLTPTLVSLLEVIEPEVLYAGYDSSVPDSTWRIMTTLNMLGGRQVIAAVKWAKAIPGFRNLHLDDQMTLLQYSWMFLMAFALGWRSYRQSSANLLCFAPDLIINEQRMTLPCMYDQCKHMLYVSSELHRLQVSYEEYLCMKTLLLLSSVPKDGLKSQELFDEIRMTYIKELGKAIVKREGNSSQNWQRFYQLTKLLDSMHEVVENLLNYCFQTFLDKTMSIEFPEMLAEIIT
As to the kind of experiment: Agonistic mode of action on the glucocorticoid receptor (CHO-Gal4/GR luciferase reporter cell line). The settings on record: CHO-Gal4/GR luciferase reporter cells; observed in the agonistic assay or the antagonistic assay (mode not given); read-out: IC50 or EC50 range. It is filed as cell-based. From the text: Potential selective glucocorticoid receptor modulators of this intervention can be tested for modulation of the activity of the glucocorticoid receptor using cell-based assays. These assays involve a Chinese hamster ovary (CHO) cell line which contains fragments of the glucocorticoid receptor as well as fusion proteins. The glucocorticoid receptor fragments used are capable of binding the ligand (e.g. beclomethasone) to identify molecules that compete for binding with glucocorticoid receptor ligands. In more detail, the glucocorticoid receptor ligand binding domain is fused to the DNA binding domain (DBD) of the transcriptionfactor GAL4 (GAL4 DBD-GR) and is stably integrated into a CHO cell line containing a GAL4-UAS-Luciferase reporter construct. […] After cell lysis the luminescence that is produced by luciferase after addition of the substrate is detected and EC50 or IC50 values can be calculated. Engagement of molecules which induce gene expression via glucocortocoid receptor binding to the DNA leads to expression of the luciferase gene under the control of the fusion protein GAL4 DBD-GR and therefore to a dose-dependent increase of the luminescence signal. Binding of molecules which repress beclomethasone-induced gene expression of the luciferase gene under the control of the fusion protein GAL4 DBD-GR leads to a dose-dependent reduction of the luminescence signal.
The reporter cell line CHO-Gal4/GR consisted of a chinese hamster ovary (CHO) cell line (Leibniz Institute DSMZ—German Collection of Microorganisms and Cell Cultures GmbH: ACC-110) containing a firefly luciferase gene under the control of the GR ligand binding domain fused to the DNA binding domain (DBD) of GAL4 (GAL4 DBD-GR) stably integrated into CHO cells. This cell line was established by stable transfection of CHO cells with a GAL4-UAS-Luciferase reporter construct. In a subsequent step the ligand binding domain of the GR cloned into pIRES2-EGFP-GAL4 containing the DNA binding domain of GAL4 from pFA-AT2 was transfected. This fusion construct activated firefly luciferase expression under the control of a multimerized GAL4 upstream activation sequence (UAS). The signal of the emitted luminescence was recorded by the FLIPR^TETRA. This allowed for specific detection of ligand-induced activation of the GR and therefore for the identification of compounds with agonistic properties. The GAL4/UAS reporter was premixed with a vector that constitutively expressed Renilla luciferase, which served as an internal positive control for transfection efficiency.
The complete culture medium for the assay was: • DMEM F-12 (1:1) MIXTURE (LONZA cat. No: BE04-687F/U1) 500 mL • 5 mL of 100 mM Sodium Pyruvate (LONZA cat. No: BE12-115E) • 25 mL of 7.5% Sodium Bicarbonate (LONZA cat. No BE17-613E) • 6.5 mL of 1 M Hepes (LONZA cat. No: BE17-737E) • 5 mL of 100× Penicillin/Streptomycin (LONZA cat. No DE17-602E) • 50 mL of Fetal Bovine Serum (Euroclone cat. No ECS 0180L) • 0.25 mL of 10 mg/mL Puromycin (InvivoGen cat.: ant-pr-1) • 0.5 mL of 100 mg/mL Zeocin (InvivoGen cat.: ant-zn-1)
Cryo-preserved CHO-Gal4/GR cells were suspended in complete medium and 5000 cells/25 μl/well were seeded into the wells of 384-well polystyrene assay plates (Thermo Scientific, cat. #4332) and cultured at 37° C., 5% CO2 and 95% humidity. After 24 hours growth medium was carefully removed and replaced by 30111 Opti-MEM (GIBCO, cat. #31985062) as assay buffer. To test the compounds an 8-point half-log compound dilution curve was generated in 100% DMSO starting from a 2 mM stock and compounds were then diluted 1:50 in Opti-MEM. 10111 of compounds were then added to the wells containing 30 μl Opti-MEM resulting in a final assay concentration range from 10 μM to 0.003 μM in 0.5% DMSO. Compounds were tested at 8 concentrations in quadruplicate data points. […] Finally, cells were lysed with 20 μl of Triton/Luciferin solution and the signal of the emitted luminescence was recorded at the FLIPR^TETRA for 2 minutes. […]
For the molecule `CCc1nnc2n1-c1c(C)c(-c3cccc4c3ccn4S(C)(=O)=O)cc(F)c1NC2(C)C` [Example 308, 1-Ethyl-6-fluoro-4,4,9-trimethyl-8-(1-methylsulfonyl-1H-indol-4-yl)-5H-[1,2,4]triazolo[4,3-a]quinoxaline], the IC50 or EC50 (antagonist or agonist mode, not stated per compound) is less than 0.1 µM.
As to `CCc1nnc2n1-c1c(C)c(-c3cc(F)cc4c(C)c[nH]c34)cc(F)c1NC2(C)C` [Example 316, 1-Ethyl-6-fluoro-8-(5-fluoro-3-methyl-1H-indol-7-yl)-4,4,9-trimethyl-5H-[1,2,4]triazolo[4,3-a]quinoxaline], the IC50 or EC50 (antagonist or agonist mode, not stated per compound) fell in the range of 0.1 to 1 µM.
On to `CCc1nnc2n1-c1c(C)c(-c3cc(F)cc4c3ccn4S(C)(=O)=O)cc(F)c1NC2(C)C` [Example 323, 1-Ethyl-6-fluoro-8-(6-fluoro-1-methylsulfonyl-1H-indol-4-yl)-4,4,9-trimethyl-5H-[1,2,4]triazolo[4,3-a]quinoxaline], for which the IC50 or EC50 (antagonist or agonist mode, not stated per compound) lay within 0.1 to 1 µM.
Next, `Cc1c(-c2cccc3c2ccn3CC(F)F)cc(F)c2c1-n1c(C)nnc1C(C)(C)N2` [Example 326, 8-[1-(2,2-Difluoro-ethyl)-1H-indol-4-yl]-6-fluoro-1,4,4,9-tetramethyl-5H-[1,2,4]triazolo[4,3-a]quinoxaline]: 0.1 to 1 µM.
Turning to `Cc1c(-c2cc(F)cc3c2cnn3S(C)(=O)=O)cc(F)c2c1-n1c(C)nnc1C(C)(C)N2` [Example 340, 6-Fluoro-8-(6-fluoro-1-methylsulfonyl-1H-indazol-4-yl)-1,4,4,9-tetramethyl-5H-[1,2,4]triazolo[4,3-a]quinoxaline], the IC50 or EC50 (antagonist or agonist mode, not stated per compound) was in the range of 0.1 to 1 µM.
With `Cc1c(-c2cccc3c2ccn3S(=O)(=O)CF)cc(F)c2c1-n1c(C)nnc1C(C)(C)N2` [Example 349, 6-Fluoro-8-[1-(fluoro-methylsulfonyl)-1H-indol-4-yl]-1,4,4,9-tetramethyl-5H-[1,2,4]triazolo[4,3-a]quinoxaline], the IC50 or EC50 (antagonist or agonist mode, not stated per compound) fell in the range of 0.1 to 1 µM.
As for `CCS(=O)(=O)n1ccc2c(-c3cc(F)c4c(c3C)-n3c(C)nnc3C(C)(C)N4)cccc21` [Example 350, 8-[1-(Ethylsulfonyl)-1H-indol-4-yl]-6-fluoro-1,4,4,9-tetramethyl-5H-[1,2,4]triazolo[4,3-a]quinoxaline], the IC50 or EC50 (antagonist or agonist mode, not stated per compound) was less than 0.1 µM.
Regarding `Cc1c(-c2cccc3c(C)n[nH]c23)cc(F)c2c1-n1c(C)nnc1C(C)(C)N2` [Example 352, 6-Fluoro-1,4,4,9-tetramethyl-8-(3-methyl-1H-indazol-7-yl)-5H-[1,2,4]triazolo[4,3-a]quinoxaline], the IC50 or EC50 (antagonist or agonist mode, not stated per compound) was 0.1 to 1 µM.
Consider `CCc1nnc2n1-c1c(C)c(-c3cccc4c(C)c[nH]c34)cc(F)c1NC2(C)C` [Example 355, 1-Ethyl-6-fluoro-4,4,9-trimethyl-8-(3-methyl-1H-indol-7-yl)-5H-[1,2,4]triazolo[4,3-a]quinoxaline], for which the IC50 or EC50 (antagonist or agonist mode, not stated per compound) lay within 0.1 to 1 µM.
As to `Cc1c(-c2cccc3c2ccn3S(=O)(=O)C(C)C)cc(F)c2c1-n1c(C)nnc1C(C)(C)N2` [Example 366, 6-Fluoro-8-[1-(isopropylsulfonyl)-1H-indol-4-yl]-1,4,4,9-tetramethyl-5H-[1,2,4]triazolo[4,3-a]quinoxaline], the IC50 or EC50 (antagonist or agonist mode, not stated per compound) was in the range of 1 to 15 µM.
In the case of `Cc1c(-c2cccc3c2ccn3CCN(C)C)cc(F)c2c1-n1c(C)nnc1C(C)(C)N2` [Example 375, [2-[4-(6-Fluoro-1,4,4,9-tetramethyl-5H-[1,2,4]triazolo[4,3-a]quinoxalin-8-yl)-1H-indol-1-yl]-ethyl]-dimethyl-amine], the IC50 or EC50 (antagonist or agonist mode, not stated per compound) lay within 0.1 to 1 µM.
With `Cc1c(-c2cccc3c2cnn3S(C)(=O)=O)cc(F)c2c1-n1c(C)nnc1C(C)(C)N2` [Example 378, 6-Fluoro-1,4,4,9-tetramethyl-8-(1-methylsulfonyl-1H-indazol-4-yl)-5H-[1,2,4]triazolo[4,3-a]quinoxaline], the IC50 or EC50 (antagonist or agonist mode, not stated per compound) was in the range of 1 to 15 µM.
In the case of `Cc1c(-c2cccc3c2ccn3S(=O)(=O)C2CC2)cc(F)c2c1-n1c(C)nnc1C(C)(C)N2` [Example 391, 8-[1-(Cyclopropylsulfonyl)-1H-indol-4-yl]-6-fluoro-1,4,4,9-tetramethyl-5H-[1,2,4]triazolo[4,3-a]quinoxaline], the IC50 or EC50 (antagonist or agonist mode, not stated per compound) is less than 0.1 µM.
`CCS(=O)(=O)n1ccc2c(-c3c(C)c4c(c(F)c3F)NC(C)(C)c3nnc(C)n3-4)cc(F)cc21` [Example 446, 8-(1-(ethylsulfonyl)-6-fluoro-1H-indol-4-yl)-6,7-difluoro-1,4,4,9-tetramethyl-4,5-dihydro-[1,2,4]triazolo[4,3-a]quinoxaline]: the IC50 or EC50 (antagonist or agonist mode, not stated per compound) was less than 0.1 µM.
Take `Cc1c(-c2cc(F)cc3c2ccn3S(C)(=O)=O)c(F)c(F)c2c1-n1c(C)nnc1C(C)(C)N2` [Example 447, 6,7-Difluoro-8-(6-fluoro-1-methylsulfonyl-1H-indol-4-yl)-1,4,4,9-tetramethyl-5H-[1,2,4]triazolo[4,3-a]quinoxaline]: the IC50 or EC50 (antagonist or agonist mode, not stated per compound) is less than 0.1 µM.
Next, `Cc1c(-c2cccc3c2ccn3S(C)(=O)=O)c(F)c(F)c2c1-n1c(C)nnc1C(C)(C)N2` [Example 448, 6,7-difluoro-1,4,4,9-tetramethyl-8-(1-(methylsulfonyl)-1H-indol-4-yl)-4,5-dihydro-[1,2,4]triazolo[4,3-a]quinoxaline]: less than 0.1 µM; `Cc1c(-c2cc(F)cc3c2ccn3CCO)c(F)c(F)c2c1-n1c(C)nnc1C(C)(C)N2` [Example 449, 2-[4-(6,7-Difluoro-1,4,4,9-tetramethyl-5H-[1,2,4]triazolo[4,3-a]quinoxalin-8-yl)-6-fluoro-1H-indol-1-yl]-EtOH]: 0.1 to 1 µM; `Cc1nnc2n1-c1c(C#N)c(-c3cccc4c3ccn4C3CC3)cc(F)c1NC2(C)C` [Example 450, 8-(1-cyclopropyl-1H-indol-4-yl)-6-fluoro-1,4,4-trimethyl-4,5-dihydro-[1,2,4]triazolo[4,3-a]quinoxaline-9-carbonitrile]: less than 0.1 µM.
Take `Cc1c(-c2cccc3c2cnn3S(C)(=O)=O)c(F)c(F)c2c1-n1c(C)nnc1C(C)(C)N2` [Example 451, 6,7-Difluoro-1,4,4,9-tetramethyl-8-(1-methylsulfonyl-1H-indazol-4-yl)-5H-[1,2,4]triazolo[4,3-a]quinoxaline]: the IC50 or EC50 (antagonist or agonist mode, not stated per compound) was in the range of 0.1 to 1 µM.
As for `Cc1c(-c2cc(F)cc3c2cnn3S(C)(=O)=O)c(F)c(F)c2c1-n1c(C)nnc1C(C)(C)N2` [Example 452, 6,7-Difluoro-8-(6-fluoro-1-methylsulfonyl-1H-indazol-4-yl)-1,4,4,9-tetramethyl-5H-[1,2,4]triazolo[4,3-a]quinoxaline], the IC50 or EC50 (antagonist or agonist mode, not stated per compound) is less than 0.1 µM.
